Measured values as given in patent US8829049B2, “Medicinal composition intended for the treatment of erectile dysfunction in mammals and use of the composition” (ACEF S.A., priority 2009, dated 2014).
“Also recorded” adds a separate entry of the source. Where a name gives a salt, the structure may show the parent alone.

Legend:
[1] = biological target: phosphodiesterase 5 (PDE-5) (Homo sapiens, UniProt O76074); experiment: activity test for the enzyme phosphodiesterase 5 (PDE-5); type: biochemical; details: PDE-5 enzyme activity; read-out: 50% effective dose (DE50)
[2] = heart rate and adverse signs in the treated mice; type: in vivo; details: for Heart rate, AVERAGE, after: after administration; for Heart rate, AVERAGE, before: before administration; for adverse signs observed (tachycardia, shaking): intraperitoneal, Group I sildenafil citrate, Group III cubebin
Experimental: (§1) 42 Swiss mice have been used, adults, between 18 and 24 weeks old, weighing between 25 and 35 grams, from the Biotherium of the University of Franca (UNIFRAN), which were confined in plastic cages with metal fences and fed with standard feed (Labina-Purina) and water ad libitum, at room temperature of 22° C.
After a period of adaptation, the animals have been divided into seven groups, as per Table 1 below: […]

patients = details: cited from earlier work; for interaction with nitrates: combination with nitroglycerin / organic nitrates; for adverse effects: patients
[3] = cited from earlier work
Swiss mice = experiment: vasodilating effect / penile erection test in Swiss mice, intraperitoneal administration, with penile histology; type: in vivo
Experimental: as §1
After a period of adaptation, the animals have been divided into seven groups, as per Table 1 below:
Animals from all groups have been kept under the same conditions for four hours for later evaluation of the studied pharmacological effect. They were subsequently anesthetized with a solution of 1.5 mg of ketamine plus 0.1 mg of xylazine and then euthanized to take off the penile tissue. Each sample was immediately stocked in 10% formaldehyde to make histological slides.

Compound | EC50 [1] | Heart rate, AVERAGE, after [2] | Heart rate, AVERAGE, before [2] | adverse signs observed (tachycardia, shaking) [2] | interaction with nitrates (patients) | adverse effects (patients) | further results
OC1OC[C@H](Cc2ccc3c(c2)OCO3)[C@H]1Cc1ccc2c(c1)OCO2 (mixture of isomers) [cubebin] | 16.6 ± 8.2 µM | 553.5 | 621.7 | not causing tachycardia or shaking | – | – | –
CN1CC(=O)N2[C@H](c3ccc4c(c3)OCO4)c3[nH]c4ccccc4c3C[C@@H]2C1=O [Tadalafil] | – | – | – | – | modest synergic effects | patients did not have red skin | –
CCCc1nc(C)c2c(=O)[nH]c(-c3cc(S(=O)(=O)N4CCN(CC)CC4)ccc3OCC)nn12 [Vardenafil] | – | – | – | – | minimum changes in heart rate and blood pressure | – | time to maximum plasma concentration ([3]; single doses of 10 or 20 mg): ≤ 0.7 h
O[C@H]1OC[C@H](Cc2ccc3c(c2)OCO3)[C@H]1Cc1ccc2c(c1)OCO2 [cubebin] | – | – | – | – | – | – | ejaculation after treatment (Swiss mice; mice of Group III, FIGS. 4c and 4d): ejaculating after said treatment; penile erection / sexual behaviour observed (Swiss mice; mice, intraperitoneal, Group I sildenafil citrate, Group III 20 mg/kg cubebin): prolonged erection and licked the penis; also recorded: penile erection; histology of corpus cavernosum (Swiss mice; mouse penile tissue, H. E., 400×): void space very dilated and congested
CCCc1nn(C)c2c(=O)[nH]c(-c3cc(S(=O)(=O)N4CCN(C)CC4)ccc3OCC)nc12 [sildenafil citrate] | – | 627.75 | 628.5 | tachycardia, shaking and testicle tumescence | – | cephalea, red skin, dyspepsia, nose congestion and visual disturbances | half life in circulation ([3]; in vivo): four; deaths related to the drug reported (patients; in vivo): More than 500 deaths; rate of deaths (patients; in vivo): fifty
hydroethylic desildenafil citrate | 38.4 ± 1.8 µM | – | – | – | – | – | –
